The source of these data is patent US9156790B2, “Anticancer P21-activated kinase inhibitors” (Ohio State Innovation Foundation, priority 2013, dated 2015).

The target in experiment [1] is T1, Recombinant active PAK 1 (Homo sapiens, UniProt Q13153).
T1 construct: purchased Calbiochem
As to the kind of experiment: In vitro PAK1 kinase assay (MBP substrate, 32P-ATP). The experiment is classed as biochemical. The following applies: for Inhibition of PAK1 kinase activity in initial screen: 7.5 μM inhibitor, 2.5 μM ATP, myelin basic protein substrate (FIG. 2A); for ATP competition for PAK1: ATP 5-40 μM, Lineweaver-Burk analysis (FIG. 2C); for Relative PAK1 inhibitory potency (comparison in words) / IC50: in vitro kinase assay; for Relative PAK1 inhibitory potency (comparison in words): comparison between compounds / with OSU-03012; for IC50: read-out: IC50 versus PAK, in vitro (bound implied by chosen test concentration). As to the method: Recombinant active PAK 1 (Calbiochem) was incubated with selected derivatives or 0.1% DMSO in the presence or absence of MBP (Sigma) in a 1× kinase buffer (Cell Signaling). The addition of [γ-32P]-ATP (2.5 μCi/reaction) (Perkin Elmer) started the reaction, which was incubated at 30° C. for 30 minutes. The reaction was terminated by the addition of EDTA. Results were obtained after visualization of ^32P-labeled MBP after separation on 12% polyacrylamide gels and autoradiography. For the Lineweaver-Burk plot analysis, the ratio of radioactive ATP to nonradioactive ATP was not altered. The PAK1 kinase activities are the means of three independent experiments quantified using P81 phosphocellulose paper by a scintillation counter after three washes with 0.75% phosphoric acid.
Screening of OSU-03012 Derivatives to Identify PAK1 Inhibitors. The 17 derivatives along with OSU-03012, each at 7.5 μM, were screened for their ability to inhibit PAK1 activity by in vitro PAK1 kinase assay. The dose was chosen (above the IC50 of OSU-03012) to allow OSU-03012 to serve as a robust positive control. The PAK1 kinase assay was performed using recombinant active PAK1 with myelin basic protein as substrate in the presence of 2.5 μM ATP and 7.5 μM of respective inhibitors.
To further investigate these six compounds, dose-response studies on PAK1 activity were performed by using PAK1 kinase assay. […] We next questioned whether compounds 4 or 15 inhibited PAK1 in an ATP competitive manner as their parent compound OSU-03012.

Experiment [2] addresses LIMK1 (Homo sapiens, UniProt P53667). Description: Kinase profiling panel: LIMK1. The experiment is classed as biochemical. The following applies: 5 μM compound; average of triplicate. The protocol: (§1) To further probe the selectivity of the compounds 4 and 15, they were subjected for kinase profiling service for screening against a panel of other kinases selected based on the kinase tree at 5 μM concentration, at or above the IC50 for the two compounds versus PAK in both in vitro and cell-based assays. […] PAK1 was not available for testing using this system thus it was not possible to compare directly in this assay system.

Experiment [3] has as its system BCPAP cells. Description: MTT cell viability assay, BCPAP. The experiment is classed as cell-based, Human. The following applies: Homo sapiens, BCPAP, 72-hours of exposure, 1% FBS, mean±standard deviation (n=3), read-out: IC50 for reducing viability of BCPAP cells versus DMSO control. The source says:
Human thyroid cancer BCPAP, TPC1, and FTC133 cell lines were the generous gifts of Drs. Rebecca Schweppe and Bryan Haugen (University of Colorado Denver) (Schweppe et al., The Journal of clinical endocrinology and metabolism 83:4331-4341 (2008)) with permission from the following originating laboratories: BCPAP—Dr. Fabien, Centre Hospitalier Lyon-Sud, France (Fabien et al., Cancer 73:2206-2212 (1994)); TPC1—Dr. Sato, Kanazawa University, Japan (Tanaka et al., Virology 161:62-411 (1987)); and FTC133—Dr. Goretzki, University of Leipzig, Germany (Goretzki et al., Recent Results Cancer Res 118:48-63 (1990)). The obtained cell lines were confirmed for identity by DNA fingerprinting. BCPAP was grown in RPMI 1640 medium (Life Technologies Co., Carlsbad, Calif.) while FTC133 and TPC1 were grown in DMEM (Life Technologies Co.), both supplemented with 10% fetal bovine serum (FBS) and NEAA unless as noted for experiments.
The effect of OSU-03012 and its derivatives on cell viability was assessed by using the 3-(4,5-dimethylthiazol-2-yl)-2,5-diphenyl-2H-tetrazolium bromide (MTT) assay. Three replicates were performed in each individual experiment, and experiments were repeated at least three separate times. Cells were grown in 96-well plates for 24 hours and were exposed to various concentrations of drugs dissolved in DMSO (final concentration 0.1%) in RPMI 1640 or DMEM containing 1% FBS for 72 hours. 10 μL of 0.5 mg/ml MTT was added to each well and cells were incubated in CO2 at 37° C. for 2 hours. Supernatants were removed from the wells, the reduced MTT dye was solubilized in 100 μL of solution C (12 ml of 1N HCl in 300 mL of isopropanol), and absorbance at 570 nm was determined on a microplate reader.
We assessed the ability of the compounds to reduce cell viability in vitro by MTT assay after 72 hours of continuous exposure. Results are shown in Table 1 and are depicted as the IC50 vs. simultaneously performed DMSO control.
^aThe reported IC50 values are concentrations at which BCPAP, FTC133 and TPC1 cell viability by MTT assays 50% of DMSO control after 72-hours of exposure. Data are presented as mean±standard deviation (n=3). PAK and PDK1 Selectivity In Vivo
Background: Tetrazolium assays rely on reduction of a dye to a coloured formazan, in cell work by metabolically active cells.

For experiment [4], the target named is FAK (Homo sapiens, UniProt Q05397). Description: Kinase profiling panel: FAK. The experiment is classed as biochemical. The following applies: 5 μM compound; average of triplicate. As to the method:
as §1

Experiment [5] addresses ROCK-I (Homo sapiens, UniProt Q13464). As to the kind of experiment: Kinase profiling panel: ROCK-I. The class given is biochemical. To be noted: 5 μM compound; average of triplicate. As to the method: as §1

“Also recorded” adds a separate entry of the source.

T1 sequence (Q13153 whole entry): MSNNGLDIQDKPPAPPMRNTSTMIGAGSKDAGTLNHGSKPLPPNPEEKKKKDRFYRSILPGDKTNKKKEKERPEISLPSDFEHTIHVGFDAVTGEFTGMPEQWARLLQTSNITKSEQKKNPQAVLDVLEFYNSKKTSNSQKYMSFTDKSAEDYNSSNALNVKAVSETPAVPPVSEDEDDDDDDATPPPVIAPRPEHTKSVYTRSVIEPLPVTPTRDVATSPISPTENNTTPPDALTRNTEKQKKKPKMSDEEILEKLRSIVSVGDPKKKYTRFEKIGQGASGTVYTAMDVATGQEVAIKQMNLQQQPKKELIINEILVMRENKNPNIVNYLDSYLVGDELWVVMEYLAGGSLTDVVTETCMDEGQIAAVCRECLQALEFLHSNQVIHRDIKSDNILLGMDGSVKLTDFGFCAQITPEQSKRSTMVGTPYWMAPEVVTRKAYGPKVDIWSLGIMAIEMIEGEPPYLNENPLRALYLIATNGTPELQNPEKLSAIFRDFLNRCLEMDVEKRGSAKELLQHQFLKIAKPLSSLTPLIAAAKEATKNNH
ROCK-I, sequence (Q13464 whole entry, species assumed): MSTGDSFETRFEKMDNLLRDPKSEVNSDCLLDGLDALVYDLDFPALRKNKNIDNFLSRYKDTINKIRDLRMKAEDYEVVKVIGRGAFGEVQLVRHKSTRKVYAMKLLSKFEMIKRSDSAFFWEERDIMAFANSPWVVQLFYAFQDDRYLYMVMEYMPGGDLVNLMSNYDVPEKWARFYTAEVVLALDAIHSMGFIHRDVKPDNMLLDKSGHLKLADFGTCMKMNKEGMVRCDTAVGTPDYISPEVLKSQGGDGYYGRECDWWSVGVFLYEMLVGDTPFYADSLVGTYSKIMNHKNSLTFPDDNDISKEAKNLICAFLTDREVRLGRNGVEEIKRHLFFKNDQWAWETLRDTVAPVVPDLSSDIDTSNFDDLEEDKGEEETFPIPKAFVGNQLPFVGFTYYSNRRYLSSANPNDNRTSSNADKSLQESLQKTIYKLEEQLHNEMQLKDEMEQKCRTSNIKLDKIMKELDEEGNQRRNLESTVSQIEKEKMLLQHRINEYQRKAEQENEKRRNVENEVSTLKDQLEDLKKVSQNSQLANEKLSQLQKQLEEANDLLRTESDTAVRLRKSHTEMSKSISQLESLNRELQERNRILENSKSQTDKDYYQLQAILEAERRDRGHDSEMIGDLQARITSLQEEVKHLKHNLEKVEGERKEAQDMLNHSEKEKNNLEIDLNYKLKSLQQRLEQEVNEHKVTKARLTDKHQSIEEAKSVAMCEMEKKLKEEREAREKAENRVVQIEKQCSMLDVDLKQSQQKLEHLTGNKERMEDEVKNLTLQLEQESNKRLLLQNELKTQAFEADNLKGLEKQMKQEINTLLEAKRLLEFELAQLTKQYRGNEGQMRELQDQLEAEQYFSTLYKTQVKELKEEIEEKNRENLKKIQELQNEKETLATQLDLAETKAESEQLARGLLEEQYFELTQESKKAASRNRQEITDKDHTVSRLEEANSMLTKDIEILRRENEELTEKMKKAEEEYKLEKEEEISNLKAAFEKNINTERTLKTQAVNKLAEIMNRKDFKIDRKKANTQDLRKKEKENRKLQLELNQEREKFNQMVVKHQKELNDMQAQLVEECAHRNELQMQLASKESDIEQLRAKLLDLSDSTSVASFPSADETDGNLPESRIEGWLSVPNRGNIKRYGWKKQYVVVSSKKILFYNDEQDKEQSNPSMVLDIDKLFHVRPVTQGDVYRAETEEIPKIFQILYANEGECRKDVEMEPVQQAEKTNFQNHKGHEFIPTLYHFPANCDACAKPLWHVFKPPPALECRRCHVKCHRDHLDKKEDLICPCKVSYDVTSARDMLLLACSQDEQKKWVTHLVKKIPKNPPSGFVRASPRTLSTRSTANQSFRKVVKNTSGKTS
FAK, sequence (Q05397 whole entry, species assumed): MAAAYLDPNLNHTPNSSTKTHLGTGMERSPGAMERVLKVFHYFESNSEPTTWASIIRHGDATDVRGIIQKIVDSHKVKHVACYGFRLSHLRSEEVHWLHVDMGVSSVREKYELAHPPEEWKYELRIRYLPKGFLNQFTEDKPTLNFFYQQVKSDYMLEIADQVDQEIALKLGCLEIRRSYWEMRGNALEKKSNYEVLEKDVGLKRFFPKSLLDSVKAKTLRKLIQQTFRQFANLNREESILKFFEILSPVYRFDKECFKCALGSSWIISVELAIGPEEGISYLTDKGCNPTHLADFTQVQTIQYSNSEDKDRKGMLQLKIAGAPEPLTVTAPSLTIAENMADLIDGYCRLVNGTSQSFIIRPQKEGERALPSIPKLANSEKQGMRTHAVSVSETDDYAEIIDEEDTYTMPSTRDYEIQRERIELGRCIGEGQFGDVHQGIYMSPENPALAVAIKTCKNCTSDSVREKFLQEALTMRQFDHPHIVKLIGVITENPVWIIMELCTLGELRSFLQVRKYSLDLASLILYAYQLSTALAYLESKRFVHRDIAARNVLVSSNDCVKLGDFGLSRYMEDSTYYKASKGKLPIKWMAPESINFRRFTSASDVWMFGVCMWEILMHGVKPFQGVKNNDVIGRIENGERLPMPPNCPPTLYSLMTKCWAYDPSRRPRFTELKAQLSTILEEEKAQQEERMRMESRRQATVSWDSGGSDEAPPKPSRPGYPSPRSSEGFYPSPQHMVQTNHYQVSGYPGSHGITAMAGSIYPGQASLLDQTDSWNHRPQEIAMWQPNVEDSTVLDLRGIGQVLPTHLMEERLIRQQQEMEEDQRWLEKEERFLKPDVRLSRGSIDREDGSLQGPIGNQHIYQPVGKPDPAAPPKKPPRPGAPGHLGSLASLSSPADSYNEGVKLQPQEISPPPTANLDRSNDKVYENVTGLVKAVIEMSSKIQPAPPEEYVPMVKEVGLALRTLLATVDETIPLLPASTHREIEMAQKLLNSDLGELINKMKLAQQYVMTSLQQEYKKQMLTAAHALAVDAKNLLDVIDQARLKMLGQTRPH
LIMK1, sequence (P53667 whole entry, species assumed): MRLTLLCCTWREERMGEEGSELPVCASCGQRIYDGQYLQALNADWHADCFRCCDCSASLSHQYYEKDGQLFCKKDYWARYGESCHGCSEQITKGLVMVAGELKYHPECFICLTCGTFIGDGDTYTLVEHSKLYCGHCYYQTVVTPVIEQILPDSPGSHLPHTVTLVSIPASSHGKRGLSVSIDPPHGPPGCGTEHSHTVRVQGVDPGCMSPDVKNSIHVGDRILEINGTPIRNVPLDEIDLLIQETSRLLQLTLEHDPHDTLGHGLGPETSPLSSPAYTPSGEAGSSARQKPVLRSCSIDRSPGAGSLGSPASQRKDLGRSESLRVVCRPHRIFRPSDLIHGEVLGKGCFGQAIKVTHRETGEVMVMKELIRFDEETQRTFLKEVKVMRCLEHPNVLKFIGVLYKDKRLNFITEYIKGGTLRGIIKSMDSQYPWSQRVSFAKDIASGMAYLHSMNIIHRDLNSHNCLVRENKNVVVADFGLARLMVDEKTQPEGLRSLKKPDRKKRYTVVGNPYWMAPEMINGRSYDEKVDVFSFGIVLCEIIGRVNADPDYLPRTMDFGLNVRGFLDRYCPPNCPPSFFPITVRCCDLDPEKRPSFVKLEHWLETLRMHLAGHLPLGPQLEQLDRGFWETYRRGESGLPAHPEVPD

In the case of `NCCC(=O)Nc1ccc(-n2nc(C(F)(F)F)cc2-c2ccc3ccc4ccccc4c3c2)cc1` [Compound 4, 3-amino-N-(4-(5-(phenanthren-3-yl)-3-(trifluoromethyl)-1H-pyrazol-1-yl)phenyl)-propanamide], in experiment [1], the “Inhibition of PAK1 kinase activity in initial screen” value is “inhibited PAK1 kinase activity”, the “ATP competition for PAK1” value is listed as “competed with ATP binding to PAK1”, the “Relative PAK1 inhibitory potency (comparison in words)” value is recorded as “comparable PAK1 inhibitory activity to OSU-03012; also recorded: more potent than the other compounds” and the IC50 was at most 5000 nM. Besides, the “% activity vs. DMSO, LIMK1” value in experiment [2] worked out at 130%. In addition, the IC50 in experiment [3] came to 2070 ± 60 nM. Further, the “% activity vs. DMSO, FAK” value in experiment [4] is given as 87%. In experiment [5], the “% activity vs. DMSO, ROCK-I” value worked out at 93%.
With `CC(C)NC(=O)c1cc(-c2ccc3ccc4ccccc4c3c2)n(-c2ccc(NC(=O)CN)cc2)n1` [Compound 15, 1-(4-(2-Aminoacetamido)phenyl)-N-isopropyl-5-(phenanthren-3-yl)-1H-pyrazole-3-carboxamide], in experiment [1], the “Inhibition of PAK1 kinase activity in initial screen” value was “inhibited PAK1 kinase activity”, the “ATP competition for PAK1” value was “competed with ATP binding to PAK1”, the “Relative PAK1 inhibitory potency (comparison in words)” value is listed as “relative enhancement in activity; also recorded: comparable PAK1 inhibitory activity to OSU-03012; also recorded: more potent than the other compounds” and the IC50 was at most 5000 nM. For the same compound, in experiment [2], the “% activity vs. DMSO, LIMK1” value was determined as 117%. The IC50 in experiment [3] was 1490 ± 680 nM. Moreover, in experiment [4], the “% activity vs. DMSO, FAK” value is listed as 96%. For the same compound, the “% activity vs. DMSO, ROCK-I” value in experiment [5] amounted to 95%.
